Measured values as given in ChEMBL document CHEMBL3885861, “Open TG-GATES”.

Organism: Rattus norvegicus
Assay: Open TG-GATES - Regimen: Single
Type: toxicity, organism-based, Sprague-Dawley
Parameters: regimen Single, gender Male, age 6 weeks
Conditions: in vivo, po, 100 mg/kg, route gavage, dose level High; for APTT / Bas / Eos / Fbg / Hb / Ht / Lym / MCH / MCHC / MCV / Mono / Neu / PT / Plat / RBC / Ret / WBC: tissue Blood; for KIDNEY_L / KIDNEY_R / KIDNEY_TOTAL: tissue Kidney; for LIVER: tissue Liver; for A/G / ALP / ALT / AST / BUN / CRE / Ca / Cl / DBIL / GLC / IP / K / LDH / Na / PL / RALB / TBIL / TC / TG / TP / gamma-GTP: tissue Plasma

## CCCc1cc(=O)[nH]c(=S)[nH]1 [PROPYLTHIOURACIL]
3 h
  TERMINAL_BW: 180.9 g
  APTT: 15.7 s
  Bas: 0%
  Eos: 0.6%
  Fbg: 210 mg/dL
  Hb: 13.3 g/dL
  Ht: 39.7%
  Lym: 82.6%
  MCH: 21.7 pg
  MCHC: 33.3%
  MCV: 65.1 fL
  Mono: 5.8%
  Neu: 10.8%
  PT: 12.9 s
  Plat: 99.3 x10_4/uL
  RBC: 611.2 x10_4/ul
  Ret: 9.7%
  WBC: 96.7 x10_2/uL
  KIDNEY_L: 0.8 g
  KIDNEY_R: 0.8 g
  KIDNEY_TOTAL: 1.6 g
  LIVER: 8.3 g
  A/G: 1.9
  ALP: 858.8 IU/L
  ALT: 38 IU/L
  AST: 70.2 IU/L
  BUN: 12.6 mg/dL
  CRE: 0.4 mg/dL
  Ca: 10.9 mg/dL
  Cl: 105 meq/L
  DBIL: 0.03 mg/dL
  GLC: 189.4 mg/dL
  IP: 10.9 mg/dL
  K: 4.2 meq/L
  LDH: 141 IU/L
  Na: 138.4 meq/L
  PL: 138 mg/dL
  RALB: 3.7 g/dL
  TBIL: 0.3 mg/dL
  TC: 83.4 mg/dL
  TG: 27 mg/dL
  TP: 5.6 g/dL
  gamma-GTP: 2 IU/L
6 h
  TERMINAL_BW: 176.2 g
  APTT: 16.5 s
  Bas: 0%
  Eos: 0.6%
  Fbg: 213.2 mg/dL
  Hb: 13.2 g/dL
  Ht: 39.9%
  Lym: 76%
  MCH: 21.6 pg
  MCHC: 33.2%
  MCV: 65 fL
  Mono: 5.2%
  Neu: 18.2%
  PT: 12.8 s
  Plat: 106.5 x10_4/uL
  RBC: 612.8 x10_4/ul
  Ret: 9.9%
  WBC: 77.1 x10_2/uL
  KIDNEY_L: 0.8 g
  KIDNEY_R: 0.8 g
  KIDNEY_TOTAL: 1.6 g
  LIVER: 7.5 g
  A/G: 2.1
  ALP: 762.4 IU/L
  ALT: 27.8 IU/L
  AST: 64 IU/L
  BUN: 11.4 mg/dL
  CRE: 0.4 mg/dL
  Ca: 11 mg/dL
  Cl: 105.4 meq/L
  DBIL: 0.048 mg/dL
  GLC: 186.8 mg/dL
  IP: 10.5 mg/dL
  K: 4.6 meq/L
  LDH: 139.2 IU/L
  Na: 139 meq/L
  PL: 136.6 mg/dL
  RALB: 3.8 g/dL
  TBIL: 0.4 mg/dL
  TC: 78.8 mg/dL
  TG: 23 mg/dL
  TP: 5.6 g/dL
  gamma-GTP: 2 IU/L
9 h
  TERMINAL_BW: 173.6 g
  APTT: 15.9 s
  Bas: 0%
  Eos: 1.2%
  Fbg: 207.4 mg/dL
  Hb: 12.9 g/dL
  Ht: 38.8%
  Lym: 73.6%
  MCH: 21.7 pg
  MCHC: 33.3%
  MCV: 65.1 fL
  Mono: 8.2%
  Neu: 17.2%
  PT: 12.8 s
  Plat: 110.6 x10_4/uL
  RBC: 597.2 x10_4/ul
  Ret: 9.9%
  WBC: 65.2 x10_2/uL
  KIDNEY_L: 0.8 g
  KIDNEY_R: 0.8 g
  KIDNEY_TOTAL: 1.6 g
  LIVER: 7 g
  A/G: 1.9
  ALP: 879.2 IU/L
  ALT: 31.2 IU/L
  AST: 68 IU/L
  BUN: 13.6 mg/dL
  CRE: 0.4 mg/dL
  Ca: 10.8 mg/dL
  Cl: 108 meq/L
  DBIL: 0.008 mg/dL
  GLC: 186.6 mg/dL
  IP: 10.4 mg/dL
  K: 4.8 meq/L
  LDH: 176.8 IU/L
  Na: 139.4 meq/L
  PL: 141.4 mg/dL
  RALB: 3.6 g/dL
  TBIL: 0.4 mg/dL
  TC: 83.2 mg/dL
  TG: 28 mg/dL
  TP: 5.5 g/dL
  gamma-GTP: 1.4 IU/L
24 h
  TERMINAL_BW: 186.8 g
  APTT: 15.6 s
  Bas: 0%
  Eos: 1%
  Fbg: 217 mg/dL
  Hb: 13.1 g/dL
  Ht: 39.5%
  Lym: 77.6%
  MCH: 21.7 pg
  MCHC: 33%
  MCV: 65.7 fL
  Mono: 7.2%
  Neu: 14.6%
  PT: 12.2 s
  Plat: 108.5 x10_4/uL
  RBC: 601.8 x10_4/ul
  Ret: 9.3%
  WBC: 115.2 x10_2/uL
  KIDNEY_L: 0.9 g
  KIDNEY_R: 0.9 g
  KIDNEY_TOTAL: 1.7 g
  LIVER: 9.9 g
  A/G: 1.8
  ALP: 1169.8 IU/L
  ALT: 42.6 IU/L
  AST: 69.2 IU/L
  BUN: 17.4 mg/dL
  CRE: 0.5 mg/dL
  Ca: 11.2 mg/dL
  Cl: 106.8 meq/L
  DBIL: 0.014 mg/dL
  GLC: 175.2 mg/dL
  IP: 8.1 mg/dL
  K: 5 meq/L
  LDH: 192.4 IU/L
  Na: 139.8 meq/L
  PL: 170.6 mg/dL
  RALB: 3.7 g/dL
  TBIL: 0.3 mg/dL
  TC: 97.8 mg/dL
  TG: 107 mg/dL
  TP: 5.7 g/dL
  gamma-GTP: 1.2 IU/L
